What was measured:
[1] = target: T1, aquaporin-3 (AQP3) (Homo sapiens, UniProt Q92482); assay: stopped-flow glycerol permeability in hRBCs; format: cell-based; set-up: native AQP3 in human red blood cells; conditions: red blood cells
T1 sequence (Q92482 1-292): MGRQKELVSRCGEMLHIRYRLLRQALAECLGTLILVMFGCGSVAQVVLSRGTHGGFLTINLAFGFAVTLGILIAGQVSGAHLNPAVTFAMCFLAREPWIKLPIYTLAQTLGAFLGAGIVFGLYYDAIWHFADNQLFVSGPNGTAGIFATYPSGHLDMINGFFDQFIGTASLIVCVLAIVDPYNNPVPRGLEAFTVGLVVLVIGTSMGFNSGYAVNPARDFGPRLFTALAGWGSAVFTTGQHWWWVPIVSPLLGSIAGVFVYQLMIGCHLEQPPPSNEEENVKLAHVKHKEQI

[2] = target: T1, aquaporin-3 (AQP3); assay: stopped-flow glycerol permeability in hRBCs; confirmed in yeast expressing human AQP3; format: cell-based; set-up: native AQP3 in human red blood cells (IC50); conditions: red blood cells

P2W12 showed an IC50 [1] of 2780 ± 90 nM.
P2W18 gave an IC50 [2] of 800 ± 40 nM.
With P5W30 the IC50 [1] was 3240 ± 30 nM.

From article PMC7177757, “The Aquaporin-3-Inhibiting Potential of Polyoxotungstates” (International Journal of Molecular Sciences, 2020)
